Test results from ChEMBL document CHEMBL3580553, “Potent and Nontoxic Chemosensitizer of P-Glycoprotein-Mediated Multidrug Resistance in Cancer: Synthesis and Evaluation of Methylated Epigallocatechin, Gallocatechin, and Dihydromyricetin Derivatives” (J Med Chem, 2015).

Key:
[1] = target: ATP-dependent translocase ABCB1 (Homo sapiens, UniProt P08183); assay: Modulation of P-gp (unknown origin) transfected in human MDA435/LCC6MDR cells assessed as reversible of paclitaxel resistance measured as IC50 for paclitaxel at 1 uM after 5 days by CellTiter 96 Aqueous assay relative to PTX alone treated cell; type: cell-based; details: 120 h
[2] = Cytotoxicity against human MDA435/LCC6MDR cells after 3 days by MTS assay; type: functional, cell-based; details: 72 h
[3] = system: L929; assay: Cytotoxicity against mouse L929 cells after 3 days by MTS assay; type: cell-based; details: L929, 72 h
[4] = Cytotoxicity against human LCC-6 cells after 3 days by MTS assay; type: functional, cell-based; details: LCC-6, 72 h
[5] = Modulation of P-gp (unknown origin) transfected in human MDA435/LCC6MDR cells assessed as reversible of paclitaxel resistance measured as IC50 for paclitaxel at 1 uM after 5 days by CellTiter 96 Aqueous assay
[6] = Selectivity index, ratio of IC50 for mouse […] cells to EC50 for modulation of P-gp (unknown origin) transfected in human MDA435/LCC6MDR cells assessed as reversing paclitaxel resistance; design: species or system L929

Sequence of ATP-dependent translocase ABCB1 (P08183 whole entry): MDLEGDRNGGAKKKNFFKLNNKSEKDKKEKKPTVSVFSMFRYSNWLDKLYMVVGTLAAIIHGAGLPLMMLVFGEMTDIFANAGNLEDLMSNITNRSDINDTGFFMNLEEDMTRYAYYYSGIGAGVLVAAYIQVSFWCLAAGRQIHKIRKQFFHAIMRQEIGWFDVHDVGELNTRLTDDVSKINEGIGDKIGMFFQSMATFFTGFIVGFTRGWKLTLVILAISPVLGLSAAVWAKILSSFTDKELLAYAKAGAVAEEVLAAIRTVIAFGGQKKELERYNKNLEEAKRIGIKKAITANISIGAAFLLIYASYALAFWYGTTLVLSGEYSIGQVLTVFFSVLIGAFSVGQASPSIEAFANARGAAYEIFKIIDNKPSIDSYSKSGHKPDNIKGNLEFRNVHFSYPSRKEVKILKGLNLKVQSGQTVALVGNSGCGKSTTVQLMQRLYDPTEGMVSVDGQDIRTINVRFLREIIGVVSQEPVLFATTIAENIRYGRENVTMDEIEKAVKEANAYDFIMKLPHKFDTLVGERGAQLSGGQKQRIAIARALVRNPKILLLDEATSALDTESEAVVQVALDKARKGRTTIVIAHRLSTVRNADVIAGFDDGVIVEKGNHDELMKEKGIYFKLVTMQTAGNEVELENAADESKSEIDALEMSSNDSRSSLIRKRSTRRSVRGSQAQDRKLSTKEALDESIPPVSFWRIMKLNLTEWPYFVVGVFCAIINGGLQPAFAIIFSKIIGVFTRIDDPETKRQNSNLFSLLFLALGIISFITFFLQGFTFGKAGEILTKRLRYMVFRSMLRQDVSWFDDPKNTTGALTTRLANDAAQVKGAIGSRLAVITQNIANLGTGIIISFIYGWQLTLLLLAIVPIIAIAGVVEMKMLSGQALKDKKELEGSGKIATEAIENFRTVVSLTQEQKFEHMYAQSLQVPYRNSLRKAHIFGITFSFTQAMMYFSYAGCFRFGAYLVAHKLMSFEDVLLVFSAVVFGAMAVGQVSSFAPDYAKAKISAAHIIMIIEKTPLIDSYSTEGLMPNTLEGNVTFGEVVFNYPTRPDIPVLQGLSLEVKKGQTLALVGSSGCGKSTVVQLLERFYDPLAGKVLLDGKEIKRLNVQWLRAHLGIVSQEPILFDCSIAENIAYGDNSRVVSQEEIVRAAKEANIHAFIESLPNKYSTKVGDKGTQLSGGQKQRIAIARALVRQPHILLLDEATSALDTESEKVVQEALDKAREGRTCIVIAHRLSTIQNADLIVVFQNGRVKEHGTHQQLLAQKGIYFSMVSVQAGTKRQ

SMILES	Ratio [1]	IC50 [2] [µM]	IC50 [3] [µM]	IC50 [4] [µM]	IC50 [5] [µM]	Ratio IC50/EC50 [6]
COc1cc(OC)c2c(c1)O[C@H](c1cc(OC)c(OC)c(OC)c1)[C@H](OC(=O)CCc1cc(OC)c(OC)c(OC)c1)C2	8					
COc1cc(OC)c2c(c1)O[C@H](c1cc(OC)c(OC)c(OC)c1)[C@@H](OC(=O)c1cc(OC)c(OC)c(OC)c1)C2	3					
COc1cc(OC)c2c(c1)O[C@H](c1cc(OC)c(OC)c(OC)c1)[C@@H](OC(=O)c1ccc(F)c(NC(=O)c3ccc(OC)c(OC)c3)c1)C2=O	15.4					
COc1cc(OC)c2c(c1)O[C@H](c1cc(OC)c(OC)c(OC)c1)[C@H](OC(=O)c1ccc(F)c(N(C)C)c1)C2	4	> 100	> 100	> 100		
COc1cc(OC)c2c(c1)O[C@H](c1cc(OC)c(OC)c(OC)c1)[C@H](OC(=O)c1ccc(F)c(NC(=O)/C=C/c3ccc(OC)c(OC)c3)c1)C2	17.9	> 100	> 100	> 100	0.0081	
COc1ccc(C(=O)O[C@@H]2Cc3c(OC)cc(OC)cc3O[C@@H]2c2cc(OC)c(OC)c(OC)c2)cc1	1	> 84	> 100	> 100		
COc1cc(OC)c2c(c1)O[C@H](c1cc(OC)c(OC)c(OC)c1)[C@@H](OC(=O)c1ccc(F)c(NC(=O)c3cc(OC)c(OC)c(OC)c3)c1)C2=O	4					
COc1cc(OC)c2c(c1)O[C@H](c1cc(OC)c(OC)c(OC)c1)[C@@H](OC(C)=O)C2=O	1.4					
COc1cc(OC)c2c(c1)O[C@H](c1cc(OC)c(OC)c(OC)c1)[C@@H](O)C2	1.1					
COc1cc(OC)c2c(c1)O[C@H](c1cc(OC)c(OC)c(OC)c1)[C@H](OC(=O)Cc1ccc(OC)c(OC)c1)C2	4.5					
C=CCOc1cc(C(=O)O[C@@H]2Cc3c(OC)cc(OC)cc3O[C@@H]2c2cc(OC)c(OC)c(OC)c2)cc(OCC=C)c1OCC=C	12.1	> 100	> 100	> 100		
COc1cc(OC)c2c(c1)O[C@H](c1cc(OC)c(OC)c(OC)c1)[C@H](OC(=O)c1ccc(OC)c(OC)c1)C2	7.4	> 100	> 100	> 100		
COc1ccc(C(=O)O[C@H]2Cc3c(OC)cc(OC)cc3O[C@@H]2c2cc(OC)c(OC)c(OC)c2)cc1	2.2					
COc1cc(OC)c2c(c1)O[C@H](c1cc(OC)c(OC)c(OC)c1)[C@@H](OC(=O)/C=C/c1ccc(OC)c(OC)c1)C2=O	5.5				0.0262	
COc1cc(OC)c2c(c1)O[C@H](c1cc(OC)c(OC)c(OC)c1)[C@H](OC(=O)c1ccc(F)c(NC(=O)c3ccc(F)c(NC(=O)c4ccc(OC)c(OC)c4)c3)c1)C2	10.6					
COc1cc(O)c2c(=O)c(OC(=O)c3cc(OC)c(OC)c(OC)c3)c(-c3ccc(OC)c(OC)c3)oc2c1	2.1					
COc1cc(OC)c2c(c1)O[C@H](c1cc(OC)c(OC)c(OC)c1)[C@H](OC(=O)c1cccc(F)c1)C2	1.5	> 100	> 100	> 100		
COc1ccc(/C=C/C(=O)O[C@H]2C(=O)c3c(OC)cc(OC)cc3O[C@@H]2c2cc(OC)c(OC)c(OC)c2)cc1	3.6					
COc1cc(OC)c2c(c1)O[C@H](c1cc(OC)c(OC)c(OC)c1)[C@H](OC(=O)c1ccc(F)c(NC(C)=O)c1)C2	9.8	> 100	> 100	> 100		
COc1ccc(CCC(=O)O[C@@H]2Cc3c(OC)cc(OC)cc3O[C@@H]2c2cc(OC)c(OC)c(OC)c2)cc1	3.6					
COc1ccc(C(=O)OCCOc2c(-c3ccc(OC)c(OC)c3)oc3cc(OC)cc(OC)c3c2=O)cc1	6					
COc1ccc(/C=C/C(=O)O[C@H]2Cc3c(OC)cc(OC)cc3O[C@@H]2c2cc(OC)c(OC)c(OC)c2)cc1	7.8					
COc1cccc(C(=O)O[C@@H]2Cc3c(OC)cc(OC)cc3O[C@@H]2c2cc(OC)c(OC)c(OC)c2)c1	3.2	> 100	> 100	> 100		
COc1cc(OC)c2c(c1)O[C@H](c1cc(OC)c(OC)c(OC)c1)[C@@H](OC(=O)c1ccc(F)c(NC(=O)/C=C/c3ccc(OC)c(OC)c3)c1)C2=O	10				0.0144	
COc1cc(OC)c2c(c1)O[C@H](c1cc(OC)c(OC)c(OC)c1)[C@@H](OC(=O)c1ccc(OC)c(OC)c1)C2=O	4					

SMILES	Ratio [1]	IC50 [2] [µM]	IC50 [3] [µM]	IC50 [4] [µM]	IC50 [5] [µM]	Ratio IC50/EC50 [6]
COc1cc(OC)c2c(c1)O[C@H](c1cc(OC)c(OC)c(OC)c1)[C@H](OC(=O)c1ccc(F)c(NC(=O)/C=C/c3cc(OC)c(OC)c(OC)c3)c1)C2	23.3	> 100	> 100	> 100		
CC(=O)Oc1cc(OC(C)=O)c2c(c1)O[C@H](c1cc(OC(C)=O)c(OC(C)=O)c(OC(C)=O)c1)[C@H](OC(=O)c1cc(OC(C)=O)c(OC(C)=O)c(OC(C)=O)c1)C2	0.8	31.7	41.4	71.5		
COc1cc(OC)c2c(c1)O[C@H](c1cc(OC)c(OC)c(OC)c1)[C@@H](OC(=O)c1ccc(OC)c(OC)c1)C2	12.1					
COc1cc(OC)c2c(c1)O[C@H](c1cc(OC)c(OC)c(OC)c1)[C@@H](OC(=O)c1ccc(F)c(NC(=O)/C=C/c3ccc(OC)c(OC)c3)c1)C2	21.9	> 100	> 100	> 100		>357
COc1cc(OC)c2c(c1)O[C@H](c1cc(OC)c(OC)c(OC)c1)[C@@H](OC(=O)/C=C/c1ccc(OC)c(OC)c1)C2	12.3	> 100	> 100	> 100	0.0118	
COc1cc(OC)c2c(=O)c(OCCOC(=O)/C=C/c3cc(OC)c(OC)c(OC)c3)c(-c3ccc(OC)c(OC)c3)oc2c1	11.2					
COc1cc(OC)c2c(c1)O[C@H](c1cc(OC)c(OC)c(OC)c1)[C@@H](OC(=O)c1cc(OC)c(OC)c(OC)c1)C2=O	3.3					
C=CCOc1cc(C(=O)O[C@H]2C(=O)c3c(OC)cc(OC)cc3O[C@@H]2c2cc(OC)c(OC)c(OC)c2)cc(OCC=C)c1OCC=C	4.6					
COc1ccc(/C=C/C(=O)O[C@@H]2Cc3c(OC)cc(OC)cc3O[C@@H]2c2cc(OC)c(OC)c(OC)c2)cc1	6.6	> 100	> 100	> 100		
COc1cc(OC)c2c(c1)O[C@H](c1cc(OC)c(OC)c(OC)c1)[C@H](OC(=O)Cc1cc(OC)c(OC)c(OC)c1)C2	5.8				0.025	
COc1cc(OC)c2c(c1)O[C@H](c1cc(OC)c(OC)c(OC)c1)[C@H](OC(=O)CCc1ccc(OC)c(OC)c1)C2	7.6					
COc1cc(OC)c2c(c1)O[C@H](c1cc(OC)c(OC)c(OC)c1)[C@@H](OC(=O)c1ccc(F)c(NC(=O)/C=C/c3cc(OC)c(OC)c(OC)c3)c1)C2=O	5.2					
COc1ccc(CC(=O)O[C@@H]2Cc3c(OC)cc(OC)cc3O[C@@H]2c2cc(OC)c(OC)c(OC)c2)cc1	4.2					
COc1cc(OC)c2c(c1)O[C@H](c1cc(OC)c(OC)c(OC)c1)[C@H](OC(=O)c1ccc(F)c(NC(=O)c3ccc(F)c(NC(=O)c4cc(OC)c(OC)c(OC)c4)c3)c1)C2	10.8					
CCOc1cc(C(=O)O[C@@H]2Cc3c(OC)cc(OC)cc3O[C@@H]2c2cc(OC)c(OC)c(OC)c2)cc(OCC)c1OCC	1.3	> 100	> 100	> 100		
COc1cc(OC)c2c(c1)O[C@H](c1cc(OC)c(OC)c(OC)c1)[C@H](OC(=O)c1cc(OC)c(OC)c(OC)c1)C2	6.9	> 100	> 100	> 100	0.021	
COc1cc(OC)c2c(c1)O[C@H](c1cc(OC)c(OC)c(OC)c1)[C@@H](OC(=O)c1ccc(F)c(NC(=O)/C=C/c3cc(OC)c(OC)c(OC)c3)c1)C2	34.4	> 100	> 100	> 100	0.0042	>444
COc1cc(OC)c2c(c1)O[C@H](c1cc(OC)c(OC)c(OC)c1)[C@@H](OC(=O)/C=C/c1cc(OC)c(OC)c(OC)c1)C2=O	9.1				0.0159	
COc1cc(OC)c2c(c1)O[C@H](c1cc(OC)c(OC)c(OC)c1)[C@H](OC(=O)c1ccc(F)cc1)C2	2.7	> 100	> 100	> 100		
COc1cc(OC)c2c(c1)O[C@H](c1cc(OC)c(OC)c(OC)c1)[C@H](OC(=O)/C=C/c1ccc(OC)c(OC)c1)C2	16.6	> 100	> 100	> 100		>638
COc1ccc(C(=O)O[C@H]2C(=O)c3c(OC)cc(OC)cc3O[C@@H]2c2cc(OC)c(OC)c(OC)c2)cc1	3					
COc1ccc(C(=O)Nc2cc(C(=O)Nc3cc(C(=O)O[C@@H]4Cc5c(OC)cc(OC)cc5O[C@@H]4c4cc(OC)c(OC)c(OC)c4)ccc3F)ccc2F)cc1	9.2				0.0157	
CC(=O)O[C@H]1C(=O)[C@@]2(C)[C@H]([C@H](OC(=O)c3ccccc3)[C@]3(O)C[C@H](OC(=O)[C@H](O)[C@@H](NC(=O)c4ccccc4)c4ccccc4)C(C)=C1C3(C)C)[C@]1(OC(C)=O)CO[C@@H]1C[C@@H]2O [PACLITAXEL]		0.145		0.0016		
COc1cc(OC)c2c(c1)O[C@H](c1cc(OC)c(OC)c(OC)c1)[C@H](O)C2	0.9	> 75	> 100	> 100	0.1552	
COc1cc(OC)c2c(c1)O[C@H](c1cc(OC)c(OC)c(OC)c1)[C@@H](OC(=O)/C=C/c1cc(OC)c(OC)c(OC)c1)C2		> 100	> 100	> 100		
